According to US11702663B2, “Bacteria-based protein delivery” (Universitaet Basel, priority 2015, dated 2023):

Key:
p38 = format: cell-based, human
[1] = tested on: B16F10 murine melanoma cells; format: cell-based
[2] = tested on: 4T1 murine breast cancer cells; format: cell-based
HeLa cells [3] = format: cell-based, human
4T1 cells = format: cell-based, murine
B16F10 cells = format: cell-based, murine
HeLa cells [4] = format: cell-based, human; remark: listed apart in the source
D2A1 cells = format: cell-based
zebrafish embryos = conditions: in vivo
HeLa cells [5] = format: cell-based, human; remark: listed apart in the source
Akt = format: cell-based, human
HeLa cells [6] = assay: Western blotting of T3SS translocated proteins from infected cells (digitonin lysis); format: cell-based, human; conditions: HeLa cells coinfected with strain delivering 2×TEV cleavage site substrate, 2 h, MOI of 100
From the text: Western blotting of T3SS translocated proteins from infected cells. HeLa cells in 6-well plates were infected at an MOI of 100 as described above. In case of coinfection with the TEV protease translocating Y. enterocolitica strain, the OD600 of the strains was set and the two bacterial suspensions were mixed in a tube at a ratio of 1:1 (if not otherwise indicated) before addition to the cells. At the end of the infection, the cells were washed twice with ice-cold PBS and collected by scraping in a small volume of ice-cold PBS. After centrifugation (16 000 rcf, 5 min, 4° C.) the pellet was dissolved in 0.002% digitonin supplemented with a protease inhibitor cocktail (Roche complete, Roche). The dissolved pellets were incubated for 5 minutes on ice and then centrifuged (16 000 rcf, 25 min, 4° C.). Supernatants were collected and analyzed for total protein content by […] (Pierce) before SDS PAGE and Western blotting using an anti-Myc (Santa Cruz, 9E11) or anti-Ink4C (Cell Signaling) antibody.

HeLa cells [7] = format: cell-based, human; remark: listed apart in the source

For “YopE1-138-OspF: YopE1-138 fusion to S. flexneri type III effector OspF, a phosphothreonine lyase”, the “TNFα-induced p38 phosphorylation” value (p38) was “TNFα-induced phosphorylation was abolished”.

“YopE1-138-(tBID BH3)2: murine BH3 domain of tBID fused to itself, fused to YopE1-138” was tested, and the “IC50 (MOI), pBad-MycHisA based delivery compared with pYV encoded” value [1] was “slightly decreased IC50 value”, the “capacity of inducing apoptosis, IC50 (MOI needed to kill 50% of cells)” value [1] was “decreased upon delivery of tandem repeats of tBID BH3 domain as compared to a single tBID BH3 domain” and the “cell death (nuclear count)” value [1] was “more active than YopE1-138-(tBID-BH3) at lower MOI”. The “efficiency of cell killing, IC50 (MOI needed to kill 50% of cells)” value [1] was “decreased upon delivery of tandem repeats of tBID BH3 domain as compared to a single tBID BH3 domain”, the “IC50 (MOI), pBad-MycHisA based delivery compared with pYV encoded” value [2] was “slightly decreased IC50 value” and the “capacity of inducing apoptosis, IC50 (MOI needed to kill 50% of cells)” value [2] was “decreased upon delivery of tandem repeats of tBID BH3 domain as compared to a single tBID BH3 domain”. The “cell death (nuclear count)” value [2] was “more active than YopE1-138-(tBID-BH3) at lower MOI” and the “efficiency of cell killing, IC50 (MOI needed to kill 50% of cells)” value [2] was “decreased upon delivery of tandem repeats of tBID BH3 domain as compared to a single tBID BH3 domain”.

For “BepG: YopE1-138 fusion to the Bid domain of the B. henselae effector BepG”, the cAMP production (HeLa cells [3]) was “failed to induce cAMP”.

For “BH3 domain of murine BID: YopE1-138 fusion to BH3 domain of murine tBID, codon optimized for Y. enterocolitica”, the cell death (4T1 cells) was “induce massive cell death”, the cell death (B16F10 cells) was “induce massive cell death” and the cell death (HeLa cells [4]) was “induce massive cell death”. For the same molecule, the cell death (D2A1 cells) was “induce massive cell death”.

In the case of “YopE1-138-z-BIM: YopE1-138 fusion to zebrafish apoptosis inducer z-BIM”, the “apoptosis induction / cell death” value (HeLa cells [4]) is reported as “showed clear signs of cell death”, the “apoptosis in nearby cells, automated image analysis on maximum intensity z projections” value (zebrafish embryos) is reported as “induce apoptosis in nearby cells by far more than control bacteria do” and the “cleaved CASP3 (p17) staining in regions surrounding the bacteria” value (zebrafish embryos) is reported as “strong increase in presence of cleaved CASP3”.

In the case of “BepAE305-end: YopE1-138 fusion to BepA E305-end containing the C-terminal Bid domain”, the cAMP production (HeLa cells [3]) is reported as “triggered cAMP production in expected amounts”.

“YopE1-138-(tBID-BH3)-(BAX-BH3): murine BH3 domain of tBID fused to murine BH3 domain of BAX, fused to YopE1-138” was tested, and the “cell death (nuclear count)” value [1] was “more active than YopE1-138-(tBID-BH3) at lower MOI” and the “cell death (nuclear count)” value [2] was “more active than YopE1-138-(tBID-BH3) at lower MOI”.

With “YopE1-138-SptP: YopE1-138 fusion to SptP, a GTPase activating protein (GAP) for Cdc42” the “effect of co-infection on F-actin rearrangements triggered by YopE1-138-SopE-Myc” value (HeLa cells [5]) was “abolished this effect in a dose dependent manner”.

In the case of “BepA: YopE1-138 fusion to full length type IV effector BepA from B. henselae”, the cAMP production (HeLa cells [3]) is reported as “triggered cAMP production in expected amounts”.

“YopE1-138-tBID: YopE1-138 fusion to human truncated BID (tBID)” was tested, and the “apoptosis induction / cell death” value (HeLa cells [4]) was “triggered cell death in larger extend than the well-characterized apoptosis inducer staurosporin”, the “apoptotic response (confocal images, mitochondrial integrity)” value (HeLa cells [4]) was “induces a rapid apoptotic response” and the “production of CASP3 p17 subunit” value (HeLa cells [4]) was “lead to the production of CASP3 p17 subunit, even in larger amounts as with staurosporin”.

“YopE1-138-SopE-Myc: YopE1-138 fusion to SopE with MycHis tag” was tested, and the F-actin rearrangements (HeLa cells [5]) was “triggered massive F-actin rearrangements”.

With “YopE1-138-SopE: YopE1-138 fusion to SopE from Salmonella enterica, a guanine nucleotide exchange factor” the “changes in the actin network” value (HeLa cells [5]) was “induced dramatic changes in the actin network”, the “first changes in the actin cytoskeleton observed” value (HeLa cells [5]) was 2 min p.i and the “phosphorylation of Akt at T308 and S473” value (Akt) was “had no effect on Akt”.

In the case of “YopE1-138-(tBID-BH3): BH3 domain of murine tBID fused to YopE1-138, control for repeated domain constructs”, the “cell death (nuclear count)” value [1] is reported as “triggered cell death” and the “cell death (nuclear count)” value [2] is reported as “triggered cell death”.

For “TEV protease: TEV protease (S219V variant) fused to YopE1-138”, the “activity of T3SS delivered TEV protease” value (HeLa cells [6]) was “functional”.

“murine tBID: murine tBID codon optimized for Y. enterocolitica fused to YopE1-138” was tested, and the cell death (4T1 cells) was “triggered cell death”, the cell death (B16F10 cells) was “triggered cell death” and the cell death (HeLa cells [4]) was “triggered cell death”. The cell death (D2A1 cells) was “triggered cell death”.

“YopE1-138-BID: YopE1-138 fusion to human BH3 interacting-domain death agonist (BID)” was tested, and the “apoptosis induction / cell death” value (HeLa cells [4]) was “failed to induce apoptosis”.

“BH3 domain of murine BAX: YopE1-138 fusion to BH3 domain of murine BAX, codon optimized for Y. enterocolitica” was tested, and the cell death (4T1 cells) was “induce massive cell death”, the cell death (B16F10 cells) was “induce massive cell death” and the cell death (HeLa cells [4]) was “induce massive cell death”. For the same molecule, the cell death (D2A1 cells) was “induce massive cell death”.

For “Murine tBID fused to full length SteA: full length SteA fused to murine tBID, delivered by S. enterica”, the “apoptosis induction (CASP3 p17 subunit)” value (HeLa cells [7]) was “lead to apoptosis induction”.

With “YopE1-138-SopB: YopE1-138 fusion to Salmonella type III effector SopB” the “phosphorylation of Akt at T308 and S473” value (Akt) was “induced a strong phosphorylation of Akt at T308 and S473”.

B1: SteA1-20 fused murine tBID: 20 N-terminal amino acids of SteA fused to murine tBID, delivered by S. enterica (protein)
chain: MPYTSVSTYARALSGNKLPHGTGSQASRSFNQGRIEPDSESQEEIIHNIARHLAQIGDEMDHNIQPTLVRQLAAQFMNGSLSEEDKRNCLAKALDEVKTAFPRDMENDKAMLIMTMLLAKKVASHAPSLLRDVFHTTVNFINQNLFSYVRNLVRNEMD
modifications: SteA1-20 - S. enterica codon optimized murine t-BID
notes: 20 N-terminal amino acids of SteA fused to murine tBID, delivered by S. enterica
With B1 the “apoptosis induction (CASP3 p17 subunit)” value (HeLa cells [7]) was “failed to induce apoptosis”.
